Measured values: patent publication US9125388B2, “Biological control” (Isis Innovation Limited, priority 1999, dated 2015)

How the values were obtained:
Assay type in all cases: in vivo, Drosophila melanogaster
[1] = tested on: Sxl^pe-tTA, tRE-Ras64B^V12 on the X chromosome; experiment: Recombinant chromosome experiments: parents raised on supplement, progeny on normal food, adults by sex (25, 18 or 29° C.); conditions: for Female progeny emerging as adults / Male progeny emerging as adults: 25° C.
Method: (§1) 40-45 young females and 20-25 young males raised at 25° C. upon food with the indicated tetracycline supplement were allowed to mate, then transferred to normal (tetracycline-free) food after 3-4 days. These flies were transferred to fresh vials of normal food every day for 12 days, then removed on the 13th day. All the vials were incubated at 25° C. while the progeny developed. The numbers of male and female progeny emerging as adults in each vial were recorded.
(§2) A standard range of additive concentrations were used in the following experiments (0.05-20 μg/ml). […] (=“not done”)
(§3) All the preceding experiments were performed at 25° C., the standard temperature for Drosophila culture. However, the insects in the wild would clearly be exposed to varying temperatures, so we investigated the extent to which the efficiency of the system is affected by temperature. As with the recombinant chromosome experiments, 40-45 young virgin females and 20-25 young males raised at 25° C. upon food with the indicated tetracycline supplement were allowed to mate, then transferred to normal (tetracycline-free) food after 3-4 days. These flies were transferred to fresh vials of normal food every day. The numbers of male and female progeny emerging as adults in each vial were recorded. These experiments were performed at either 18° C. or 29° C.

[2] = tested on: Sxl^pe-tTA, tRE-Msl-2^Nopu on the X chromosome; experiment: as above; conditions: 25° C.
Method: as §1, §2, §3

[3] = tested on: Hsp26 tTa, tRe Msl-1^Mpu on the 2nd chromosome; experiment: as above; conditions: 25° C.
Method: as §1, §2, §3

[4] = tested on: Hsp26 tTa, tRe Msl-2^Nopu on the 2nd chromosome; experiment: as above; conditions: 25° C.
Method: as §1, §2, §3

[5] = tested on: Yp3 tTa, tRe Msl-2^Nopu on the 2nd chromosome; experiment: as above; conditions: 25° C.
Method: as §1, §2, §3

[6] = tested on: Sxl^pe-tTA, tRE-Msl-2^Nopu on the third chromosome; experiment: as above; conditions: 25° C.
Method: as §1, §2, §3

[7] = tested on: Sxl^pe-tTA, tRE-Ras64B^V12 on the third chromosome; experiment: as above; conditions: 25° C.
Method: as §1, §2, §3

[8] = tested on: Sxlp^e tTa, tRe Msl-1^Mpu on the X chromosome; experiment: as above; conditions: 25° C.
Method: as §1, §2, §3

[9] = tested on: Yp3 tTa, tRe Ras64B^V12 on the 2nd chromosome; experiment: Recombinant chromosome experiments / maternal transmission of Tc (Table 1): parents raised on supplement, progeny on normal food, adults by sex; conditions: 25° C.
Method: as §1, §2, §3
We used a strain of Drosophila in which females, but not males, require Tc for viability.
A strain homozygous for second chromosome insertions of both Yp3-tTA and tRe-Ras64B^V12 was tested for the effect of parental dietary Tc. 40-45 young females and 20-25 young males raised at 25° C. upon food with the indicated tetracycline supplement were allowed to mate, then transferred to normal (tetracycline-free) food after 3-4 days. These flies were transferred to fresh vials of normal food every day for 12 days, and then removed on the 13th day. All the vials were incubated at 25° C. while the progeny developed. The total numbers of male and female progeny emerging as adults were recorded.

[10] = tested on: Recombinant chromosome stocks; experiment: Maintenance of stocks on non-antibiotic tetracycline analogues; conditions: for concentration on which recombinant chromosome stocks can readily be maintained / repressing tTA responsive gene expression: 25° C.
Method: Recombinant chromosome stocks can readily be maintained at 25° C. on epioxytetracycline concentrations of 1 μg/ml or anhydrotetracycline concentrations of 0.1 μg/ml, showing that these non-antibiotic tetracycline analogues are effective in repressing tTA responsive gene expression.
as §2

[11] = tested on: Yp3 tTa, tRe Msl-1^Mpu on the 2nd chromosome; experiment: Recombinant chromosome experiments: parents raised on supplement, progeny on normal food, adults by sex (25, 18 or 29° C.); conditions: 25° C.
Method: as §1
Since there is no meiotic recombination in Drosophila melanogaster males, any of these recombinant chromosomes could be used in a genetic sexing or insect control program, if required.
as §2, §3

[12] = parents raised on anhydrotetracycline 0.05 μg/ml
[13] = parents raised on anhydrotetracycline 0.1 μg/ml
[14] = parents raised on anhydrotetracycline 1 μg/ml
[15] = parents raised on anhydrotetracycline 5 μg/ml
[16] = parents raised on anhydrotetracycline 20 μg/ml
[17] = Epioxytetracycline Conc. 1 μg/ml
[18] = Epioxytetracycline Conc. 5 μg/ml
[19] = Epioxytetracycline Conc. 20 μg/ml
[20] = parents raised on epioxytetracycline 1 μg/ml
[21] = parents raised on epioxytetracycline 5 μg/ml
[22] = parents raised on epioxytetracycline 20 μg/ml

Cc1c2c(c(O)c3c(O)cccc13)C(=O)[C@]1(O)C(=O)C(C(N)=O)=C(O)[C@@H](N(C)C)[C@@H]1C2 [anhydrotetracycline]
Female progeny emerging as adults [1, 12]: 0
Male progeny emerging as adults [1, 12]: 1452
Female progeny emerging as adults [1, 13]: 0
Male progeny emerging as adults [1, 13]: 1528
Female progeny emerging as adults [1, 14]: 0
Male progeny emerging as adults [1, 14]: 1614
Female progeny emerging as adults [1, 15]: 0
Male progeny emerging as adults [1, 15]: 1448
Female progeny emerging as adults [1, 16]: 5
Male progeny emerging as adults [1, 16]: 1592
Female progeny emerging as adults [2, 12]: 0
Male progeny emerging as adults [2, 12]: 1114
Female progeny emerging as adults [2, 13]: 0
Male progeny emerging as adults [2, 13]: 1120
Female progeny emerging as adults [2, 14]: 0
Male progeny emerging as adults [2, 14]: 1130
Female progeny emerging as adults [2, 15]: 0
Male progeny emerging as adults [2, 15]: 1148
Female progeny emerging as adults [2, 16]: 0
Male progeny emerging as adults [2, 16]: 1128
Female progeny emerging as adults [3, 12]: 0
Male progeny emerging as adults [3, 12]: 1492
Female progeny emerging as adults [3, 13]: 0
Male progeny emerging as adults [3, 13]: 1426
Female progeny emerging as adults [3, 14]: 0
Male progeny emerging as adults [3, 14]: 1418
Female progeny emerging as adults [3, 15]: 0
Male progeny emerging as adults [3, 15]: 1457
Female progeny emerging as adults [3, 16]: 8
Male progeny emerging as adults [3, 16]: 1499
Female progeny emerging as adults [4, 12]: 0
Male progeny emerging as adults [4, 12]: 707
Female progeny emerging as adults [4, 13]: 0
Male progeny emerging as adults [4, 13]: 1457
Female progeny emerging as adults [4, 14]: 0
Male progeny emerging as adults [4, 14]: 1437
Female progeny emerging as adults [4, 15]: 0
Male progeny emerging as adults [4, 15]: 773
Female progeny emerging as adults [4, 16]: 5
Male progeny emerging as adults [4, 16]: 1447
Female progeny emerging as adults [5, 12]: 0
Male progeny emerging as adults [5, 12]: 1316
Female progeny emerging as adults [5, 13]: 0
Male progeny emerging as adults [5, 13]: 1358
Female progeny emerging as adults [5, 14]: 0
Male progeny emerging as adults [5, 14]: 1354
Female progeny emerging as adults [5, 15]: 0
Male progeny emerging as adults [5, 15]: 1344
Female progeny emerging as adults [5, 16]: 1
Male progeny emerging as adults [5, 16]: 1312
Female progeny emerging as adults [6, 12]: 0
Male progeny emerging as adults [6, 12]: 1331
Female progeny emerging as adults [6, 13]: 0
Male progeny emerging as adults [6, 13]: 1431
Female progeny emerging as adults [6, 14]: 0
Male progeny emerging as adults [6, 14]: 1309
Female progeny emerging as adults [6, 15]: 0
Male progeny emerging as adults [6, 15]: 1359
Female progeny emerging as adults [6, 16]: 1
Male progeny emerging as adults [6, 16]: 1362
Female progeny emerging as adults [7, 12]: 0
Male progeny emerging as adults [7, 12]: 1381
Female progeny emerging as adults [7, 13]: 0
Male progeny emerging as adults [7, 13]: 1304
Female progeny emerging as adults [7, 14]: 0
Male progeny emerging as adults [7, 14]: 1121
Female progeny emerging as adults [7, 15]: 0
Male progeny emerging as adults [7, 15]: 1269
Female progeny emerging as adults [7, 16]: 1
Male progeny emerging as adults [7, 16]: 1247
Female progeny emerging as adults [8, 12]: 0
Male progeny emerging as adults [8, 12]: 1582
Female progeny emerging as adults [8, 13]: 0
Male progeny emerging as adults [8, 13]: 1499
Female progeny emerging as adults [8, 14]: 0
Male progeny emerging as adults [8, 14]: 1474
Female progeny emerging as adults [8, 15]: 0
Male progeny emerging as adults [8, 15]: 1619
Female progeny emerging as adults [8, 16]: 5
Male progeny emerging as adults [8, 16]: 1533
Female progeny emerging as adults [9, 12]: 0
Male progeny emerging as adults [9, 12]: 1449
Female progeny emerging as adults [9, 13]: 0
Male progeny emerging as adults [9, 13]: 1411
Female progeny emerging as adults [9, 14]: 0
Male progeny emerging as adults [9, 14]: 1397
Female progeny emerging as adults [9, 15]: 0
Male progeny emerging as adults [9, 15]: 1430
Female progeny emerging as adults [9, 16]: 2
Male progeny emerging as adults [9, 16]: 1428
concentration on which recombinant chromosome stocks can readily be maintained [10]: 0.1 µg/mL
repressing tTA responsive gene expression [10]: effective
Female progeny emerging as adults [11, 12]: 0
Male progeny emerging as adults [11, 12]: 1339
Female progeny emerging as adults [11, 13]: 0
Male progeny emerging as adults [11, 13]: 1263
Female progeny emerging as adults [11, 14]: 0
Male progeny emerging as adults [11, 14]: 1265
Female progeny emerging as adults [11, 15]: 0
Male progeny emerging as adults [11, 15]: 1284
Female progeny emerging as adults [11, 16]: 0
Male progeny emerging as adults [11, 16]: 1297

CN(C)[C@H]1C(O)=C(C(N)=O)C(=O)[C@@]2(O)C(O)=C3C(=O)c4c(O)cccc4[C@@](C)(O)[C@H]3[C@H](O)[C@@H]12 [epioxytetracycline]
Female progeny [1, 17]: 0
Male progeny [1, 17]: 1306
Female progeny [1, 18]: 0
Male progeny [1, 18]: 1581
Female progeny [1, 19]: 0
Male progeny [1, 19]: 1495
Female progeny emerging as adults [2, 20]: 0
Male progeny emerging as adults [2, 20]: 1076
Female progeny emerging as adults [2, 21]: 0
Male progeny emerging as adults [2, 21]: 1119
Female progeny emerging as adults [2, 22]: 0
Male progeny emerging as adults [2, 22]: 1159
Female progeny emerging as adults [3, 20]: 0
Male progeny emerging as adults [3, 20]: 1243
Female progeny emerging as adults [3, 21]: 0
Male progeny emerging as adults [3, 21]: 1409
Female progeny emerging as adults [3, 22]: 0
Male progeny emerging as adults [3, 22]: 1373
Female progeny emerging as adults [4, 20]: 0
Male progeny emerging as adults [4, 20]: 1362
Female progeny emerging as adults [4, 21]: 0
Male progeny emerging as adults [4, 21]: 1181
Female progeny emerging as adults [4, 22]: 0
Male progeny emerging as adults [4, 22]: 1403
Female progeny emerging as adults [6, 20]: 0
Male progeny emerging as adults [6, 20]: 1250
Female progeny emerging as adults [6, 21]: 0
Male progeny emerging as adults [6, 21]: 1300
Female progeny emerging as adults [6, 22]: 0
Male progeny emerging as adults [6, 22]: 1364
Female progeny emerging as adults [7, 20]: 0
Male progeny emerging as adults [7, 20]: 1165
Female progeny emerging as adults [7, 21]: 0
Male progeny emerging as adults [7, 21]: 1279
Female progeny emerging as adults [7, 22]: 0
Male progeny emerging as adults [7, 22]: 1257
Female progeny emerging as adults [8, 20]: 0
Male progeny emerging as adults [8, 20]: 1483
Female progeny emerging as adults [8, 21]: 0
Male progeny emerging as adults [8, 21]: 1585
Female progeny emerging as adults [8, 22]: 0
Male progeny emerging as adults [8, 22]: 1565
Female progeny emerging as adults [9, 20]: 0
Male progeny emerging as adults [9, 20]: 1431
Female progeny emerging as adults [9, 21]: 0
Male progeny emerging as adults [9, 21]: 1424
Female progeny emerging as adults [9, 22]: 0
Male progeny emerging as adults [9, 22]: 1387
concentration on which recombinant chromosome stocks can readily be maintained [10]: 1 µg/mL
repressing tTA responsive gene expression [10]: effective
concentration required to repress gene expression, compared with tetracycline ([10]; in vivo): slightly higher concentrations are required
stock maintenance at the two lowest concentrations ([10]; standard range of additive concentrations 0.05-20 μg/ml): unable to maintain stock
Female progeny emerging as adults [11, 20]: 0
Male progeny emerging as adults [11, 20]: 1350
Female progeny emerging as adults [11, 21]: 0
Male progeny emerging as adults [11, 21]: 1308
Female progeny emerging as adults [11, 22]: 0
Male progeny emerging as adults [11, 22]: 1343
